Measured values from patent US20160022872A1, “CELL-BASED COMPOSITIONS, CELL-BASED BANDAGE DEVICES AND SYSTEMS AND METHODS OF TREATMENT THEREWITH” (UNIVERSITY OF PITTSBURGH-OF THE COMMONWEALTH SYSTEM OF …, priority 2013, published 2016).
Entries after “also recorded” stand apart in the source; their conditions may differ. Like-named read-outs stand apart in the source and are kept apart here.

Tests used:
imhMSC and prhMSC [1] = conditions: for toxic effect on MSC (caspase3 activation without FasL): MSC on Collagen I and TNC, no FasL; for effect on survival advantage of TNC and Collagen I in the presence of FasL: prhMSC on Collagen I and TNC, inhibitor 30 minutes prior to and during 8 hours FasL; for cell death / caspase3 activation (FLICA): FasL or CHX and FasL, 8 hours (imhMSC) or 12 hours (prhMSC)
Experimental: MSCs are most susceptible to cell death via the Fas death pathway. […] Cells were also treated with a low concentration of the protein synthesis inhibitor cycloheximide (CHX) in addition to FasL. Cycloheximide, being a protein synthesis inhibitor, increases cell stress, imitating the starvation stress seen in vivo in a wound setting.
After preparation of coated surfaces and prior to seeding of MSC, neutralizing antibodies to the EGFL and FNL domains were added for 24 hours Immortalized hMSC were then seeded for 24 hours, kept treated or untreated with FasL for 8 hours, followed by a FLICA assay to test for caspase3 activation.
We next studied whether TNC contributes to survival of MSCs by sequestering FasL and prevention of FasL from binding its receptor Fas on MSC. We grew MSCs inside two cloning cylinders placed in wells of a 6-well dish, enclosing areas without any ECM, or with Collagen I and TNC, on which imhMSC were grown. One well had Collagen I and TNC coating surrounding the cloning cylinders, covered with media and FasL. The second well had only media with FasL surrounding the cloning cylinders, with no TNC.
The inhibitors were present during the entire 8 hours of FasL treatment, after which a FLICA assay was performed.

Erk = experiment: immunofluorescence for phospho-Erk; type: cell-based, human; conditions: imhMSC, 0, 30 and 60 minutes
Experimental: We examined that of Erk Immortalized hMSC were plated on surfaces with Collagen I alone or Collagen I and TNC for 24 hours. After 24 hours, (considered 0 minute), immunofluorescence for phospho-Erk (green fluorescence) was tested either with or without the EGFR inhibitor PD153035.

EGFR = experiment: immunofluorescence for phospho-EGFR and EEA1; type: cell-based, human
Experimental: Upon determining that TNC provided a survival effect on MSC in the presence of FasL, and that this mapped to the EGFL, we studied if Tenascin C was able to activate EGFR on the surface of MSC and if this activation was sustained. MSCs have low levels of EGFR, which may limit activation by the ultra-low affinity EGFL. In a number of studies, immortalized hMSC were plated on surfaces with Collagen I alone or Collagen I and TNC for 24 hours. After 24 hours, (considered 0 minute), immunofluorescence for phospho-EGFR (red fluorescence) and the early endosome marker EEA1 (green fluorescence) was done on these samples. […] Immortalized hMSC seeded on Collagen I were treated with EGF, the prototypal EGFR ligand, known to cause EGFR internalization for 15, 30 and 60 minutes prior to fixation, to induce phosphorylation of EGFR. At the same time points, immunofluorescence was done on cells grown on Collagen I and TNC.

imhMSC and prhMSC [2] = experiment: MSC proliferation on extracellular matrix coatings; type: cell-based, human; conditions: 96 hours post-seeding
Description: During wound healing, endogenous MSC proliferation and differentiation are temporally distinct events. […] We tested if the extracellular matrix or ECM factors had any influence on MSC proliferation.

MSC [3] = experiment: MSC differentiation on coated surfaces (Von Kossa staining, adipocyte formation); type: cell-based, human
Description: We then studied whether TNC by itself, in the absence of specific differentiation cues, promotes MSC differentiation. We examined osteoblast or adipose cell formation from MSC grown on TNC and Collagen (Col I), in the presence of either proliferation or differentiation media. […] The matrix mix of TNC and Collagen I also did it interfere with differentiation.

MSC [4] = experiment: inverted centrifugation assay of MSC adhesiveness on coated surfaces; type: cell-based, human; conditions: 2 hours post-seeding
Experimental: Tenascin-C or TNC may reduce the number of focal adhesions and decrease cell adhesiveness in several cell types. To test for MSC adhesiveness on TNC, an inverted centrifugation assay was performed 2 hours post-seeding MSC on […] and the number of cells attached after centrifugation was compared to number of cells attached on a similarly coated surface that had not undergone centrifugation. […] To increase adhesiveness of cells on TNC we coated mixed Collagen I, a matrix naturally occurring in the in vivo bone environment and one that promotes MSC attachment and spreading, in a 1:1 ratio with TNC for coating substrates. […] In a number of studies hereof, a combination of Collagen I and TNC was used to increase TNC adherence to cells.

MSC [5] = experiment: flow cytometric quantification of FITC/HLA+ cells, MSC survival in wound bed; type: in vivo, mouse; conditions: days 3, 7 and 21; WT and KO mice
Description: Male and Female FVB (Friend Virus B-Type) and C57BL/6 mice, between 7-9 weeks of age, were used in a number of studies. After shaving the hair on the back of the mice, 8 mm punch biopsies were created. Wounds were either left untreated or treated with commercially available NEW-SKIN® (a liquid bandage or wound protective barrier available from J&J of New Brunswick, N.J.), PEG-Polymer, PEG-Polymer+TNC, or PEG-Polymer+TNC−MSC. […]
Flow cytometric quantification of FITC/HLA+cells was used to detect MSC survival in the wound bed. […]
After shaving the hair on the back of the mice 8 mm punch biopsies were created. […] Animals were euthanized by CO2 inhalation and the wounds assessed. […] Each wound was measured and then removed from the animal, with unwounded skin taken from the contralateral dorsum as a control.
Flow Cytometry. Twelve-millimeter punch biopsies of the wound and 12-mm punch biopsies of unwounded regions were isolated for quantification of MSC engraftment in wounded skin at days 3, 7, 14, and 21. […] Flow cytometry was performed on an LSR II Cytometer (a flow cytometer system available from BD Biosciences of Franklin Lakes, N.J.) and subsequently analyzed using FOWJO® digital FACS software (available from Tree Star, Inc. of Ashland, Oreg.).

## O=c1cc(N2CCOCC2)oc2c(-c3ccccc3)cccc12 [LY294002, reference compound]
imhMSC and prhMSC [1]
  toxic effect on MSC (caspase3 activation without FasL): did not have a toxic effect on cells

## COc1cccc(-c2cc(=O)c3ccccc3o2)c1N [PD98059, reference compound]
imhMSC and prhMSC [1]
  toxic effect on MSC (caspase3 activation without FasL): did not have a toxic effect on cells
  effect on survival advantage of TNC and Collagen I in the presence of FasL: blocked the survival advantage

## COc1cc2ncnc(Nc3cccc(Br)c3)c2cc1OC [PD153035, reference compound]
Erk
  phospho-Erk activation: reduced but not completely inhibited
imhMSC and prhMSC [1]
  toxic effect on MSC (caspase3 activation without FasL): did not have a toxic effect on cells
  effect on survival advantage of TNC and Collagen I in the presence of FasL: blocked the survival advantage

## Collagen I: a matrix naturally occurring in the in vivo bone environment that promotes MSC attachment and spreading
EGFR; imhMSC, 24 hours after plating (0 minute)
  phospho-EGFR staining: did not show phospho-EGFR staining
imhMSC and prhMSC [2]
  MSC proliferation relative to cell numbers initially plated: promote both imhMSC and prhMSC proliferation
Erk
  phospho-Erk activation: significantly less than that with TNC
imhMSC and prhMSC [1]
  cell death / caspase3 activation (FLICA): did not show protection
imhMSC and prhMSC [1]; listed as Collagen I alone
  cell death / caspase3 activation (FLICA): showed caspase 3 activation
MSC [3]; 30 days in proliferation media
  hydroxyapatite deposition (Von Kossa staining): neither Collagen I by itself nor TNC and Collagen I caused hydroxyapatite deposition

## EGF: the prototypal EGFR ligand, known to cause EGFR internalization
EGFR; imhMSC, 15, 30 and 60 minutes
  phospho-EGFR staining over time: stained positive for phospho-EGFR after 15 minutes of treatment; also recorded: very little phospho-EGFR signal

## TNC: the matrikine tenascin C, containing EGF-like and fibronectin like repeats
MSC [4]
  MSC adhesiveness: detach from surfaces after inverted centrifugation; also recorded: only half as adhesive as cells on Collagen I
Erk
  phospho-Erk activation: activate phosho-Erk in MSC at 0, 30 and 60 minutes
MSC [5]
  MSC survival in wound bed over time: survive more and longer
imhMSC and prhMSC [1]
  cell death / caspase3 activation (FLICA): did not show caspase3 activation
imhMSC and prhMSC [1]; cloning cylinder experiment, imhMSC
  sequestering or neutralizing of FasL: neither sequestering nor neutralizing FasL
imhMSC and prhMSC [1]; dose response, TUNEL and FLICA staining
  optimal TNC coating to promote MSC survival in the presence of FasL: 1 Lg/cm2
MSC [3]; in the presence of adipogenic inducers
  adipocyte formation: did not prevent adipocyte formation
MSC [3]; in the presence of differentiation media
  osteogenic differentiation: did not interfere with osteogenic differentiation
MSC [3]; on its own, no inducers
  adipocyte formation: did not promote adipocyte formation on its own
